Entries after “also recorded” stand apart in the source; their conditions may differ. Where a SMILES comes first, the peptide text is derived from it. The star is where a group is joined. Cbz = O=C(OCc1ccccc1)*; CH2F = FC*
Key:
caspase-8 = assay: Caspase-8 activity (colorimetric assay) in cardiomyocytes; assay type: cell-based, rat; conditions: listed as zIETD-fink
Experimental: (§1) Cardiomyocytes (CM) were prepared from 1-2 day-old rats as described by Matsui et al. (Circulation 100:2373-9, 1999). All CM were incubated in RPMI-1640 containing 5% FBS and 10% horse serum. Neonatal CM grown in 60 mm dishes were infected with Ad.EGFP.β-gal (MOI 20), Ad.FADD-wt, or Ad.FADD-dn (MOI 20), for 24 hours prior to exposure to transient hypoxic conditions, lasting up to 24 hours. To expose CM to transient hypoxia conditions, CM media is changed to N2/CO2-saturated serum-free F10 and cells are placed in an airtight N2-saturated container at 37° C. for up to 24 hours. Hypoxia was confirmed by oxymetry measurements. To examine the role of FADD in inflammatory signaling, cultured neonatal rat CM were stimulated with TNF-α (50 ng/ml) for 4 hours. Nuclear and cytoplasmic extracts were prepared.
(§2) Optionally, apoptosis may also be measured by the protein or gene expression, or alternatively, by the activity of surrogate markers of apoptosis including, for example, caspase activity. Caspase-3, -8, and -9 activity may be examined by using the caspase colorimetric assay kit from R&D Systems according to the manufacturer's protocol. Briefly, cells are scraped, collected, washed with cold PBS, and lysed in cold lysis buffer. […] Release of the pNA cleavage product is quantitated in a microplate reader (Bio-Rad) at a wavelength of 405 nm.

NF-κB = assay: TNF-α-induced NF-κB activation in neonatal rat cardiomyocytes (p65 translocation, IκB-α phosphorylation, EMSA); assay type: cell-based; conditions: 50 μM
Experimental: as §1, with “prepared. […]” for “prepared.”
Cells were harvested and nuclear extracts prepared as above. […] Nuclear proteins and oligonucleotide were then separated with native PAGE and detected by autoradiography.
Proteins were separated by SDS-PAGE performed under reducing conditions on 7.5%, 10%, and 12% separation gels with a 4% stacking gel. […] After washing, membranes were incubated with horseradish peroxidase-conjugated secondary antibody and immunoreactive bands detected by chemiluminescence.

[1] = system: rat neonatal cardiomyocytes; assay: Hypoxia/serum-deprivation-induced cardiomyocyte apoptosis (cell death ELISA, DNA laddering); assay type: cell-based
Experimental: as §1
For determination of DNA laddering, cellular DNA is extracted with phenol:chloroform, treated with RNase, ^32P-labeled, and then visualized by electrophoresis in 1.8% agarose gel.
Histone-associated DNA fragments were quantified by cell death ELISA as described in the manufacturer's protocol. DNA fragmentation data were corrected for background and normalized to the result with normoxic cardiomyocytes.

caspase-9 = assay: Caspase-9 activity (colorimetric assay) in cardiomyocytes; assay type: cell-based, rat; conditions: pretreatment or over-expression
Experimental: as §1, §2

| SMILES | hypoxia/SD-induced caspase-8 activation (caspase-8) | reversal of the FADD effect on NF-κB (NF-κB) | CM apoptosis in response to hypoxia/SD ([1]; 4 h hypoxia/SD) | hypoxia/SD-induced activation of caspase-9 (caspase-9) | hypoxia/SD-induced apoptosis (ELISA for histone-associated DNA fragmentation, DNA laddering) ([1]; concentrations ranging from 50 to 100 μM) |
| --- | --- | --- | --- | --- | --- |
| CC[C@H](C)[C@H](NC(=O)OCc1ccccc1)C(=O)N[C@@H](CCC(=O)OC)C(=O)N[C@H](C(=O)N[C@@H](CC(=O)OC)C(=O)CF)[C@@H](C)O [zIETD-fmk] (Cbz-IE(OMe)TD(OMe)-CH2F) | completely inhibited; also recorded: effectively blocked | failed to reverse | completely inhibited | completely inhibited |  |
| COC(=O)C[C@H](NC(=O)[C@H](C)NC(=O)[C@@H](NC(=O)OCc1ccccc1)C(C)C)C(=O)CF [zVAD-fmk] (Cbz-Val-Ala-Asp(OMe)-CH2F) |  |  |  |  | inhibited |
